Data as given in patent publication US7714014B2, “Targeting GLI proteins in human cancer by small molecules” (The Regents of the University of California, priority 2005, dated 2010).

Legend:
[1] = tested on: H1299 (NSCLC); test: Apoptosis analysis (Annexin V FITC, flow cytometry); type: cell-based, human; details: 3 days
Protocol: Apoptosis was analyzed by using an Annexin V FITC Apoptosis Detection Kit (Biosource, Camarillo, Calif.), according to the manufacturer's protocol. After treatment with different small molecule compounds at various concentrations for about 3 days, cells were harvested by trypsinization, stained and immediately analyzed by flow cytometry (FACScan; Decton Dickinson, Franklin Lake, N.J.). Early apoptotic cells with exposed phosphatidylserine but intact cell membranes will bind to Annexin V-FITC, but not propidium iodide (PI). Cells in necrotic or late apoptotic stages will be labeled with both Annexin V-FITC and PI. “% apoptotic cells” or “% apoptosis” refers to the combined early and late apoptotic cells.
Flow cytometry was also used to examine apoptosis in several NSCLC cell lines after treatment with small molecule compounds of the invention.

[2] = Pharmacokinetic analysis in mice (oral administration); type: in vivo, mouse
Protocol: In another pharmacokinetic study, three mice were orally administrated with the small molecule compound FN1-5 at the dose of 30 mg/kg body weight. Then, as described above, plasma was collected from the tail-vein of each mouse and the concentration of FN1-5 in each plasma sample was determined by mass spectroscopy.
Similarly, the pharmacokinetic properties of orally administered small molecule compound FN1-8 were analyzed (FIG. 22B). Comparing the uptake of FN1-8 to FN1-5, the uptake of FN1-5 after oral administration seems to be better, by about 7 fold.

[3] = tested on: melanoma cell lines Malme-3M, A375, G361, SK-Mel-2, SK-Mel-5, and SK-Mel-28; test: Time course of cell survival (flow cytometry); type: cell-based, human
Protocol: The time course of cell survival in melanoma cell lines (Malme-3M, A375, G361, SK-Mel-2, SK-Mel-5, and SK-Mel-28) after administration of small molecule compound FN1-8 was analyzed. These melanoma cells were incubated with 10 μM or 20 μM FN1-8. Then flow cytometry was used to examine the percentage of living and dead cells at different time points. […] (FIGS. 18A, B, and C, and data not shown).

[4] = tested on: NSCLC cells A549, H358, and H322; test: MTS cell proliferation assay; type: cell-based, human; details: 7.5 μM or 15 μM; dose-dependent, already after 1 day
Excerpt: Another assay for determining the number of viable cells in proliferation or cytotoxicity assays is the MTS assay, a calorimetric method. MTS assay reagents are commercially available (Promega Corp., Madison, Wis.). The reagent contains a tetrazolium compound [3-(4,5-dimethylthiazol-2-yl)-5-(3-carboxymethoxyphenyl)-2-(4-sulfophenyl)-2H-tetrazolium, inner salt; MTS] and an electron coupling reagent (phenazine ethosulfate; PES). PES has enhanced chemical stability, which allows it to be combined with MTS to form a stable solution. The MTS tetrazolium compound (Owen.s reagent) is bioreduced by cells into a colored formazan product that is soluble in tissue culture medium. This conversion may be accomplished by NADPH or NADH produced by dehydrogenase enzymes in metabolically active cells. The quantity of formazan product as measured by the absorbance at 490 nm is directly proportional to the number of living cells in culture. Because the MTS formazan product is soluble in tissue culture medium, this assay requires fewer steps than procedures that use tetrazolium compounds such as MTT. The formazan product of MTT reduction is a crystalline precipitate that requires an additional step in the procedure to dissolve the crystals before recording absorbance readings at 570 nm. […]

[5] = tested on: NSCLC cell lines A549, H358, and H322; test: Dose titration, cell killing; type: cell-based, human; details: 7.5-30 μM tested, 3 days
Protocol: (§1) Typically, the small molecule compounds of the present invention were dissolved in DMSO at a concentration of 30 mM. The small molecule compounds were then tested under cell culture conditions at different concentrations ranging from 0, 10, 30, 50, to 100 uM. To determine cell survival after treatment, the cells were incubated with the small molecule compounds in 6-well plates for about 3 days. After removal of the cell culture medium, 1-ml of 0.5% crystal violet solution (prepared in 20% ethanol and 20% methanol) was added to stain the cells for 5 min. Then the crystal violet solution was rinsed clean with tap water. Cell survival was estimated based on the density of crystal stained plates.
Dose titration experiments of small molecule compound FN1-8 was performed using the NSCLC cell lines A549, H358, and H322. A 549, H358, and H322 cells were plated in 6-well plates and incubated with DM SO (control) or 7.5 μM, 10 μM, 15 μM, 20 μM, and 30 μM of FN1-8, respectively, for 3 days. A dramatic and dose-dependent cell killing in these cell lines was observed when FN1-8 was added at 15 μM or more. FN1-8 induced cell killing in A549 and […] at slightly lower concentrations than in H322 cells (data not shown). After 3 days, approximately 28% of the A549 cells and 58% of H358 underwent apoptosis when incubated with 20 μM FN1-8 (Table 3).

[6] = Body weight of mice after in vivo treatment; design: species or system mouse; details: three weeks after tumor inoculation and treatment
Protocol: As one preliminary in vivo toxicity study of FN1-8, it was examined if there was loss of body weight in the mice after the FN1-8 treatment. Three weeks after the initial tumor inoculation and the treatment as described in the previous examples, body weights of DMSO control group (n=11) and FN1-8 treated group (n=8) were measured using a scale.

[7] = tested on: NSCLC cell lines H1299, A549, H460 and colon cancer cell line SW480; test: Cell survival assay (crystal violet), screening; type: cell-based, human; details: 50 and 100 μM, 3 days, all cancer cell lines tested
Protocol: as §1
Cancer cell lines were plated in 6-well plates as described, and incubated with 50, and 100 μM of each compound (stocks were dissolved in DMSO at 30 mM) for 3 days. […] Apoptosis analysis was also carried out by using flow cytometry and the results were consistent (data not shown). Therefore, using the rational design design-screen approach described herein, additional small molecule compound, FN1-8, inhibiting GLI3 transcription activation domain (TAF-binding domain) was identified.

[8] = tested on: Hedgehog signaling pathway in HT29 tumor; test: Semi-quantitative RT-PCR of Hh pathway genes in xenograft tumors; type: in vivo, mouse; details: HT29 xenograft tumor (negative control)
Protocol: (§2) To examine whether the lead compound FN1-8 suppressed tumor growth through inhibition of the Hedgehog signaling pathway in vivo, expression of the key components and direct target genes of the Hh pathway (e.g., Shh, Ptch1, Gli1, Gli2, Gli3, Dvl-3) were analyzed by semi-quantitative RT-PCR using total RNA isolated from the xenograft tumors. GAPDH served as a control. This RT-PCR analysis was performed using a “pooled” tumor from two randomly selected mice of each group with reasonable size tumors.

[9] = tested on: Hedgehog signaling pathway in NSCLC tumor (H460); test: as above; type: in vivo, mouse
Protocol: as §2

Row | uptake of FN1-5 relative to FN1-8 ([2]; oral administration) | time of uptake into plasma ([2]; oral, 30 mg/kg) [min] | time within which plasma concentration diminishes ([2]; oral, 30 mg/kg) [h] | Compound | % of apoptotic cells ([1]; H1299, 10 μM) [%] | % of apoptotic cells ([1]; H1299, 100 μM) [%] | time after which cell killing effect was apparent ([3]; 20 μM, all tested melanoma cells) [days] | apoptosis in time course experiment ([3]; Malme-3M, A375, SK-Mel-5 (FIG. 14)) | cell proliferation (MTS) [4] | concentration at which dramatic and dose-dependent cell killing was observed [5] [µM] | loss of body weight [6] | cell killing [7] | Hh signaling in tumor (RT-PCR) [8] | Hh signaling in tumor (RT-PCR) [9]
1 | about 7 fold | ≤ 10 | ≤ 24 | O=C(NCCCCCO)C1C(c2ccccc2)=NN(c2ccccc2)C1c1ccccc1 (stereo not shown) [FN1-5, N-(5-Hydroxypentyl)-1,3,5-triphenyl-4,5-dihydro-pyrazole-4-carboxyamide] | 6.7 | 55.9 |  |  |  |  |  |  |  | 
2 |  |  |  | O=C(NCCc1ccc(O)cc1)C1C(c2ccccc2)=NN(c2ccccc2)C1c1ccccc1 (stereo not shown) [FN1-8, N-(2-(4-Hydroxyphenyl)ethyl)-1,3,5-triphenyl-4,5-dihydro-pyrazole-4-carboxyamide] |  |  | 2 | induces significant apoptosis | significantly inhibited cell proliferation | ≥ 15 | No noticeable loss of the body weight | Dramatic cell killing | no noticeable changes | inhibited
